Source: publication PMC6112376, “Comprehensive Analyses and Prioritization of Tox21 10K Chemicals Affecting Mitochondrial Function by in-Depth Mechanistic Studies” (Environmental Health Perspectives, 2018)
Where two headings read alike, the source gives them in different places.

Assays:
[1] = test system: rat primary hepatocytes; test: MMP assay in rat primary hepatocytes; settings: for IC50: Rattus norvegicus, Hepatocyte
[2] = test system: isolated rat liver mitochondria; test: Oxygen consumption, Clark-type oxygen electrode; assay type: biochemical; settings: for I-ADP, % of control (O2 consumption rate): glutamate/malate driven state 3 respiration; for I-ADP, % of control (O2 consumption rate) / I-sub, % of control (O2 consumption rate) / II-ADP, % of control (O2 consumption rate) / II-sub, % of control (O2 consumption rate): isolated rat liver mitochondria; for I-sub, % of control (O2 consumption rate): glutamate/malate driven state 4 respiration; for II-ADP, % of control (O2 consumption rate): succinate-driven state 3 respiration; for II-sub, % of control (O2 consumption rate): succinate-driven state 4 respiration
[3] = test system: HepG2 cells; test: Intracellular ATP content (cell viability) assay; assay type: cell-based, human; settings: 40 h treatment, mean±SD of three experiments
[4] = test system: HepG2 cells; test: cells; settings: Homo sapiens
[5] = test system: Nrf2/ARE (ARE-bla HepG2 cells); test: ARE β-lactamase reporter gene assay; assay type: cell-based, human; settings: Homo sapiens, HepG2; 16 h incubation; mean±SD of three experiments; read-out: ARE (HepG2) EC50
[6] = test system: hNSC; test: MMP assay in human neural stem cells (hNSC); assay type: cell-based; settings: Homo sapiens, Neural stem cell; 1 h treatment; fresh re-sourced stocks; mean±SD of three experiments; read-out: hNSC IC50 (MMP)
[7] = test system: Caenorhabditis elegans (Bristol N2); test: C. elegans larval development and growth assay
[8] = test system: Caenorhabditis elegans strain PE255; test: In vivo C. elegans ATP status assay
[9] = test system: HeLa cells expressing YFP-Parkin; test: Parkin translocation assay; assay type: cell-based, human; settings: HeLa cells stably expressing YFP-Parkin; treated for 2 h
[10] = test system: p53 (p53-bla HCT-116 cells); test: p53 β-lactamase reporter gene assay; assay type: cell-based, human; settings: 16 h incubation; mean±SD of three experiments
[11] = test system: HepG2 cells; settings: cited from earlier work
[12] = test system: HepG2 cells; test: ROS-Glo hydrogen peroxide (ROS) assay; assay type: cell-based, human; settings: 2 h treatment; mean±SD of three experiments
[13] = test system: HepG2 cells; settings: 10 mM galactose, no glucose; 1 h treatment; mean±SD of three experiments

## O=C(O)c1cc(O)c2c(c1)C(=O)c1cccc(O)c1C2=O [Rhein]
[1]; % of positive control, mean±SD of three experiments
  Rat hepatocytes (efficacy) (MMP): −37.5±6.05%
[1]; 1 h, read-out: Rat hepatocytes IC50 (MMP)
  IC50: 6.76 ± 4.03 µM
[1]; read-out: MMP assays IC50 (µM) Rat Hepatocytes
  IC50: 11.6 ± 4.85 µM
[1]; rat hepatocytes, mean ± SD of three experiments
  MMP assays efficacy (%) Rat Hepatocytes: -80±28%
[2]; 4 µM
  I-ADP, % of control (O2 consumption rate): 90 (49.1) % of control
  I-sub, % of control (O2 consumption rate): 105 (13.7) % of control
  II-ADP, % of control (O2 consumption rate): 89 (78.7) % of control
  II-sub, % of control (O2 consumption rate): 103 (25.4) % of control
[2]; 20 µM
  I-ADP, % of control (O2 consumption rate): 87 (47.4) % of control
  I-sub, % of control (O2 consumption rate): 127 (16.6) % of control
  II-ADP, % of control (O2 consumption rate): 87 (76.7) % of control
  II-sub, % of control (O2 consumption rate): 128 (31.4) % of control
[2]; mitochondrial respiration in isolated rat liver mitochondria, Clark type oxygen electrode, over tested concentrations
  Potential Mechanism: Uncoupler
[3]; 5 mM glucose
  ATP (HepG2, glucose) IC50: Inactive
[3]; 10 mM galactose
  ATP (HepG2, galactose) IC50: Inactive
[4]; HepG2, 1 h, read-out: HepG2 IC50 Glucose (MMP)
  IC50: 15.2 ± 1.76 µM
[4]; HepG2, read-out: MMP assays IC50 (µM) HepG2
  IC50: 8.91 µM
[4]; HepG2, read-out: MMP assays efficacy (%) HepG2
  Emax: 86%
[5]
  EC50: 15.4 ± 8.38 µM
[6]
  IC50: 10.3 ± 3.4 µM
[7]; 0.5 µM
  EXT: mean difference in nematode size relative to plate controls: 0.02304
[7]; 1 µM
  EXT: mean difference in nematode size relative to plate controls: 0.01629
[7]; 5 µM
  EXT: mean difference in nematode size relative to plate controls: 0.06956
[7]; 10 µM
  EXT: mean difference in nematode size relative to plate controls: -0.06339
[7]; 25 µM
  EXT: mean difference in nematode size relative to plate controls: -0.09625
[7]; 50 µM
  EXT: mean difference in nematode size relative to plate controls: 0.296
[7]; 75 µM
  EXT: mean difference in nematode size relative to plate controls: 0.2342
[7]; 100 µM
  EXT: mean difference in nematode size relative to plate controls: 0.2496
[8]; 0.05 µM
  LUM: mean difference in luminescence (ATP content) relative to plate controls: -0.02422
[8]; 0.1 µM
  LUM: mean difference in luminescence (ATP content) relative to plate controls: 0.007311
[8]; 0.5 µM
  LUM: mean difference in luminescence (ATP content) relative to plate controls: 0.006998
[8]; 1 µM
  LUM: mean difference in luminescence (ATP content) relative to plate controls: 0.1053
[8]; 5 µM
  LUM: mean difference in luminescence (ATP content) relative to plate controls: 0.1063
[8]; 10 µM
  LUM: mean difference in luminescence (ATP content) relative to plate controls: 0.1127
[8]; 25 µM
  LUM: mean difference in luminescence (ATP content) relative to plate controls: 0.2215
[8]; 50 µM
  LUM: mean difference in luminescence (ATP content) relative to plate controls: 0.2804
[8]; 75 µM
  LUM: mean difference in luminescence (ATP content) relative to plate controls: 0.1816
[8]; 100 µM
  LUM: mean difference in luminescence (ATP content) relative to plate controls: 0.2365
[9]
  Parkin recruitment: Inactive
[10]
  p53 (HCT-116) EC50: Inactive
[11]
  MMP assays efficacy (%) qHTS-HepG2: -100±22%
[11]; read-out: MMP assays IC50 (µM), qHTS-HepG2
  IC50: 6.06 ± 5.91 µM
[12]
  ROS (HepG2) EC50: Inactive
[13]
  HepG2 IC50 Galactose (MMP): Inactive
